{"source": "paper PMC4326964", "about": "“Probing the substrate specificity of Trypanosoma brucei GlcNAc-PI de-N-acetylase with synthetic substrate analogues” (Organic & Biomolecular Chemistry, 2014)", "key": {"[1]": {"molecular_target": "T1, T. brucei GlcNAc-PI de-N-acetylase (Trypanosoma brucei brucei, UniProt Q8I8A5)", "T1 sequence (Q8I8A5 entry or part of it)": "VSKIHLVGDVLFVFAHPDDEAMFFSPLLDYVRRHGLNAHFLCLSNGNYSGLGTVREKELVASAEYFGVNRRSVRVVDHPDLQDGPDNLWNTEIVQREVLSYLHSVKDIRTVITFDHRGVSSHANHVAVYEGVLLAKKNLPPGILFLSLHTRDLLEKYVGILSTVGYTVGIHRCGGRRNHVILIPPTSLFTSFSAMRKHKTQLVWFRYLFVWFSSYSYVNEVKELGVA", "test": "Substrate recognition (de-N-acetylation turnover) in T. brucei cell-free system, LC-MS/MS assay", "format": "biochemical", "settings": "for Substrate activity: recognised and processed (in words): N-acetylated analogue as substrate of the de-N-acetylase; for Turnover: conversion of N-acetylated compound to free amine, 37 °C, 1 h, ND = turnover not detected, for 53 measured via d6-Ac2O derivatisation of the free amine; for Relative turnover: turnover relative to α-D-GlcpNAc-PI (1)", "method": "[8],[10] The N-acetylated analogues of these compounds were prepared as previously described to give compounds 47–53 (Fig. 3).\nUsing LC-MS/MS, multiple reaction monitoring of characteristic transitions for the N-acetylated and corresponding amine form of each compound was used to directly measure the rate of conversion of the N-acetylated compound to the free amine (Table 1). As no suitable transition was identified for the amine form of 13, the enzymatic turnover was accessed by reacting any free amine formed with d 6-Ac2O, and measuring the formation of the d 3-N-acetylated form by LC-MS/MS.\nThe synthesis of 1-D-6-O-(2-amino-2-deoxy-α-D-glucopyranosyl)-myo-inositol 1-(octadecyl phosphate), (4, α-D-GlcpNH2-IPC18), [15] has been described previously. The corresponding N-acetyl derivate α-D-GlcpNAc-IPC18 (3) was prepared by treatment with acetic anhydride, [13] and the concentration of stock solutions determined by measurement of the inositol content by selected ion-monitoring GC-MS. Bloodstream form Trypanosome brucei (variant MITat1.4) were isolated and membranes (cell-free system) prepared as described previously and stored at –80 °C.\nSubstrate recognition assays were performed using 500 pmol of α-D-GlcpNAc-PI (1) in incorporation buffer (25 mM Tris pH 8.0, 50 mM KCl, 50 mM MnCl2) and varying amounts of trypanosome cell-free system (0–15 × 10^6 cell equivalents per assay) in 96-well plates containing 100 μL final volume, and incubated at 37 °C for 1 h. The reaction was quenched and the glycolipids enriched and analyzed by LC-MS/MS as described below.\n(§1) Enrichment of glycolipids was performed in a 96-well plate format. Reactions were quenched by addition of 200 μL of 5% propan-1-ol, 5 mM NH4OAc, and the glycolipids were bound to C18 resin (50 mg Isolute Array cartridge), washed three times with 200 μL 5% propan-1-ol, 5 mM NH4OAc and eluted with 100 μL 40% propan-1-ol, 5 mM NH4OAc into a 96-well collection plate.\nPrior to subsequent analysis, compound 13 was dried under nitrogen, resuspended in MeOH (100 μL) and any free amine reacted with excess d 6-Ac2O (1.5 μL) in the presence of pyridine (10 μL) for 15 min. The reaction was quenched with water (50 μL), dried under nitrogen and resuspended in 100 μL 40% propan-1-ol, 5 mM NH4OAc.\n(§2) Glycolipids were analyzed by liquid chromatography coupled to an electrospray tandem mass spectrometer (LC-MS/MS). Samples (40 μL) were injected directly from a 96-well plate onto a 10 × 1 mm C18 column (ACE, […]) and then eluted using a binary gradient of 5–80% propan-1-ol in 5 mM NH4OAc (Dionex Ultimate 3000). The gradient consisted of 2 min 0% B, 2–4 min 0–100% B, 4–8 min 100%, 8–9 min 100–0% B, 9–10 min 0% B where buffer A consisted of 5% propan-1-ol, 5 mM NH4OAc and buffer B 80% propan-1-ol, 5 mM NH4OAc. The glycolipids were analysed on an electrospray triple quadrapole mass spectrometer (Micromass Quattro Ultima) in multiple reaction monitoring mode.\nFor each pseudodisaccharide analogue (7–12), standards of the N-acetylated compound and corresponding free amine were analyzed separately in order to identify unique transitions for use in subsequent multiple reaction monitoring experiments (Table 1). The ratio of the integrals for these transitions was used to calculate the percentage of substrate conversion to product in a given sample. For compound 13, standards of the N-acetylated compound and the d 3-N-acetylated form were analyzed separately and found to produce a common fragment for use in subsequent multiple reaction monitoring experiments."}, "[2]": {"molecular_target": "T1, T. brucei GlcNAc-PI de-N-acetylase", "test": "Inhibition of turnover of α-D-GlcpNAc-IPC18 (3) in T. brucei cell-free system, LC-MS/MS assay", "format": "biochemical", "settings": "inhibition of turnover of 3; tested at 100 μM", "method": "Since the majority of the compounds were not processed by the T. brucei GlcNAc-PI de-N-acetylase, we tested their ability to inhibit the turnover of the α-D-GlcpNAc-IPC18 (3) substrate by the T. brucei GlcNAc-PI de-N-acetylase in the LC-MS/MS assay.\nInhibition assays were performed in 96-well plates in 100 μL final volume, with 1% v/v DMSO with or without inhibitor. Trypanosome cell-free system (2.5 × 10^6 cell equivalents per assay) in incorporation buffer were added to wells containing 500 pmol α-D-GlcpNAc-IPC18 (3) with or without inhibitor and incubated at 37 °C for 1 h. The reaction was quenched and the glycolipids enriched and analyzed by LC-MS/MS as described below.\nas §1, §2\nFor inhibition assays, the turnover of the substrate α-D-GlcpNAc-IPC18 (3) was used to calculate the percentage of substrate conversion to product in a given sample. Inhibitor IC50 values were calculated using a four-parameter fit of eight-point potency curves derived from three independent experiments, and are quoted with a standard deviation."}, "[3]": {"molecular_target": "T1, T. brucei GlcNAc-PI de-N-acetylase", "settings": "previous studies; cited from earlier work"}, "T. brucei GPI pathway": {"test_system": "T. brucei GPI pathway", "test": "Trypanosome cell-free system with [3H]-mannose labelling (HPTLC, fluorography)", "format": "biochemical, Trypanosoma brucei", "source_text": "The ability of 49 and 48 to act as a substrate and inhibitor, respectively, of the T. brucei GPI pathway was confirmed using the trypanosome cell-free system with [^3H]-mannose labelling (Fig. 5). […] As these mannosylated compounds lack the inositol 2-OH group they cannot undergo inositol acylation, a prerequisite for the transfer of ethanolamine, and thus are not processed past the Man3-species.\nFig. 5 The trypanosome GPI biosynthesis in the cell-free system. A. The T. brucei cell-free system was incubated without exogenous substrate, with 1, α-D-GlcpNAc-PI (10 μM), or with 49 (100 μM) in the presence of GDP-[^3H]Mannose to stimulate the production of radiolabelled mannosylated GPI intermediates. B. Inhibition of the turnover of 3, α-D-GlcpNAc-IPC18 (10 μM), in the presence of 48 (100 μM). Glycolipid products were extracted, separated by high-performance thin-layer chromatography, and visualised by fluorography. DPM – dolichol-phosphate-mannose, M1 – Man1 species, M2 – Man2 species, M3 – Man3 species, A′ – EtNPMan3 species, where the identity and migration of the species depends on the glycolipid substrate employed.\nThe formation of GPI precursors is monitored by following the incorporation of [^3H]-mannose and then they were analysed using […] and fluorography as described previously."}}, "note": "Entries after “also recorded” stand apart in the source; their conditions may differ.", "data": [{"molecule": "CCCCCCCCCCCCCCCCCCS(=O)(=O)N[C@@H]1CCCC[C@H]1O[C@@H]1O[C@H](CO)[C@@H](O)[C@H](O)[C@H]1NC(C)=O", "note": "[Compound 51]", "values": [{"measurement": "Substrate activity: recognised and processed (in words)", "setting": "[1]", "value": "inability"}, {"measurement": "Inhibitory activity (in words)", "setting": "[2]", "value": "inability"}]}, {"molecule": "CCCCCCCCCCCCCCCC(=O)OC[C@H](COP(=O)(O)O[C@@H]1[C@H](O)[C@H](O)[C@@H](O)[C@H](O)[C@H]1O[C@@H]1O[C@H](CO)[C@@H](O)[C@H](O)[C@H]1NC(C)=O)OC(=O)CCCCCCCCCCCCCCC", "note": "[Compound 6]", "values": [{"measurement": "Recognition and processing by the enzyme (in words)", "setting": "[3]", "value": "recognised and processed; also recorded: recognise and process"}]}, {"molecule": "CCCCCCCCCCCCCCCC(=O)OC[C@H](COP(=O)(O)O[C@@H]1CCCC[C@H]1O[C@@H]1O[C@H](CO)[C@@H](O)[C@H](O)[C@H]1NC(C)=O)OC(=O)CCCCCCCCCCCCCCC", "note": "[Compound 50]", "values": [{"measurement": "Substrate activity: recognised and processed (in words)", "setting": "[1]", "value": "neither a substrate nor an inhibitor"}, {"measurement": "Inhibitory activity (in words)", "setting": "[2]", "value": "neither a substrate nor an inhibitor"}]}, {"molecule": "CCCCCCCCCCCCCCCC(=O)OCC(COP(=O)(O)OC1C(O)C(O)C(O)C(O)C1OC1OC(CO)C(O)C(O)C1NC(C)=O)OC(=O)CCCCCCCCCCCCCCC", "note": "[Compound 1, 1-D-(2-acetamido-2-deoxy-α-D-glucopyranosyl)-myo-inositol 1-(1,2-di-O-hexadecanoyl-sn-glycerol 3-phosphate), reference compound]", "values": [{"measurement": "Recognition and processing by the enzyme (in words)", "setting": "[3]", "value": "recognised and processed"}, {"measurement": "Turnover", "setting": "[1]", "value": "6.1 ± 0.9", "unit": "pmol/10^6 cells equiv."}, {"measurement": "Relative turnover", "setting": "[1]", "value": 100, "unit": "%"}]}, {"molecule": "CCCCCCCCCCCCCCCCCCS(=O)(=O)N[C@@H]1CCCC[C@H]1O[C@H]1O[C@H](CO)[C@@H](O)[C@H](O)[C@H]1NC(C)=O", "note": "[Compound 52]", "values": [{"measurement": "Substrate activity: recognised and processed (in words)", "setting": "[1]", "value": "inability"}, {"measurement": "Inhibitory activity (in words)", "setting": "[2]", "value": "inability"}]}, {"molecule": "CCCCCCCCCCCCCCCCCCOP(=O)(O)O[C@@H]1CCCC[C@H]1O[C@@H]1O[C@H](CO)[C@@H](O)[C@H](O)[C@H]1NC(C)=O", "note": "[Compound 48]", "values": [{"measurement": "Inhibitory activity (in words)", "setting": "[2]", "value": "act as inhibitors"}, {"measurement": "Inhibition of priming of the cell-free system with 3", "setting": "T. brucei GPI pathway; 3 (α-D-GlcpNAc-IPC18) at 10 μM, inhibitor at 100 μM", "value": "efficiently prevented"}]}, {"molecule": "CCCCCCCCCCCCCCCC(=O)OC[C@H](COP(=O)(O)O[C@H]1[C@@H](O)[C@@H](O)[C@H](O)[C@@H](O)[C@@H]1O[C@H]1O[C@H](CO)[C@@H](O)[C@H](O)[C@H]1NC(C)=O)OC(=O)CCCCCCCCCCCCCCC", "note": "[Compound 5]", "values": [{"measurement": "Recognition and processing by the enzyme (in words)", "setting": "[3]", "value": "recognise and process"}]}, {"molecule": "CCCCCCCCCCCCCCCC(=O)OC[C@H](COP(=O)(O)O[C@@H]1CCCC[C@H]1O[C@H]1O[C@H](CO)[C@@H](O)[C@H](O)[C@H]1NC(C)=O)OC(=O)CCCCCCCCCCCCCCC", "note": "[Compound 49]", "values": [{"measurement": "Substrate activity: recognised and processed (in words)", "setting": "[1]", "value": "both recognised and processed"}, {"measurement": "Turnover", "setting": "[1]", "value": "1.3 ± 0.3", "unit": "pmol/10^6 cells equiv."}, {"measurement": "Relative turnover", "setting": "[1]", "value": 22, "unit": "%"}, {"measurement": "Formation of mannosylated GPI intermediates on priming the cell-free system", "setting": "T. brucei GPI pathway; 49 at 100 μM, GDP-[3H]Mannose, bands sensitive to jackbean α-mannosidase", "value": "three bands corresponding to the addition of 1–3 mannose residues"}]}, {"molecule": "CCCCCCCCCCCCCCCCCCOP(=O)(O)OC1C(O)C(O)C(O)C(O)C1OC1OC(CO)C(O)C(O)C1NC(C)=O", "note": "(stereo not shown) [Compound 3, reference compound]", "values": [{"measurement": "Turnover", "setting": "[1]", "value": "27.0 ± 6.0", "unit": "pmol/10^6 cells equiv."}, {"measurement": "Relative turnover", "setting": "[1]", "value": 450, "unit": "%"}]}, {"molecule": "CCCCCCCCCCCCCCCCCCOP(=O)(O)O[C@@H]1CCCC[C@H]1O[C@H]1O[C@H](CO)[C@@H](O)[C@H](O)[C@H]1NC(C)=O", "note": "[Compound 47]", "values": [{"measurement": "Inhibitory activity (in words)", "setting": "[2]", "value": "act as inhibitors"}]}, {"molecule": "CCCCCCCCCCCCCCCCCCOP(=O)(O)O[C@@H]1CCCC[C@H]1OCC(CO)NC(C)=O", "note": "(stereo partly shown) [Compound 53]", "values": [{"measurement": "Substrate activity: recognised and processed (in words)", "setting": "[1]", "value": "inactivity"}, {"measurement": "Inhibitory activity (in words)", "setting": "[2]", "value": "inactivity"}]}]}
